Where two headings read alike, the source gives them in different places.
Key:
[1] = Radiochemical purity of formulated ^177Lu-PSMA I&T solution by HPLC (stability over time); assay type: physicochemical
Experimental: pH was estimated by pH paper. Radioactivity was measured in a dose calibrator. Radiochemical purity was determined by liquid chromatography with radioactivity detection and thin layer chromatography.
Radiochemical impurities are quantified by chromatographical methods (HPLC and TLC). Radiochemical purity determined by HPLC must not be less than 95.0%
The radiochemical purity and chemical properties (pH, impurities, visual properties) of [^177Lu]Lu-PSMA I&T in the formulation composition 3 were tested on the seven batches over a time span of 70 to 72 hours from the end-of-synthesis time. Stability samples of typical therapeutic dose radioactivity and volume were stored in different conditions covering typical storage, shipment and usage of the product, including temperatures ranging from +5° C. to +40° C.
Radiochemical purity of each solution was followed by HPLC up to 71-93 hours post-radiolabeling. All solutions were stored at 22.5° C.
Sample Analysis: The pH, radioactivity concentration (RAC), PSMA I&T content, and radiochemical purity (RCP) of the formulations were determined using a variety of analytical techniques described in the following sub-sections. A detailed record of the steps performed for each analysis can be found in Attachment 1-4.
Both the determination of the assay for PSMA I&T and related substances and the RCP of the formulations were determined via HPLC analysis. The system suitability of the instrument was established by triplicate injections of a 15 ppm PSMA I&T standard prior to sample analysis and a single 15 ppm check standard every 10 sample injections. A five-point standard curve of PSMA I&T concentrations between 0.5 and 25 ppm was used to determine the PSMA I&T concentration in the formulations.

[2] = cited from earlier work; for Absorbed Dose for Tumor Lesions, Liver metastases, Mean ± SD / Absorbed Dose for Tumor Lesions, Liver metastases, Range: n 2

O=C([O-])CC[C@H](NC(=O)N[C@@H](CCCCNC(=O)CCCCCCC(=O)NCCCC[C@@H](NC(=O)[C@@H](Cc1ccccc1)NC(=O)[C@@H](Cc1ccc(O)c(I)c1)NC(=O)CC[C@H](C(=O)[O-])N1CCN(CC(=O)[O-])CCN(CC(=O)[O-])CCN(CC(=O)[O-])CC1)C(=O)[O-])C(=O)[O-])C(=O)[O-].[177Lu+3].[H+].[H+].[H+].[H+].[H+] [^177Lu-PSMA I&T, (3S,7S,26R,29R,32R,37R)-29-benzyl-32-(4-hydroxy-3-iodobenzyl)-5,13,20,28,31,34-hexaoxo-37-(4,7,10-tris(carboxymethyl)-1,4,7,10-tetraazacyclododecan-1-yl)-4,6,12,21,27,30,33-heptaazaheptatriacontane-1,3,7,26,37-pentacarboxylic acid; lutetium-177 (III)]
radiochemical purity by HPLC ([1]; 10 ml high RAC formulation, 42.5 mg/ml ascorbic acid, 0 hours post EOS): at least 99% | radiochemical purity by HPLC ([1]; 10 ml high RAC formulation, 42.5 mg/ml ascorbic acid, 46 hours post EOS): at least 93.3% | radiochemical purity by HPLC ([1]; 20 ml low RAC formulation, 31 mg/ml ascorbic acid, 0 hours post EOS): at least 99.1% | radiochemical purity ([1]; decreased strength (0.5 GBq/mL), 72 hours post-end-of-synthesis): above 95% | radiochemical stability among the formulations of Example 3 ([1]; low RAC solution of pH 4.5 and ascorbic acid concentration of 31 mg/ml): highest radiochemical stability | Absorbed Dose, Kidneys, Mean ± SD ([2]; First cycle (n = 15)): 0.71 ± 0.25 Gy/GBq | Absorbed Dose, Kidneys, Range ([2]; First cycle (n = 15)): 0.33-1.22 Gy/GBq | Absorbed Dose, Lacrimal glands, Mean ± SD ([2]; First cycle (n = 15)): 3.8 ± 1.5 Gy/GBq | Absorbed Dose, Lacrimal glands, Range ([2]; First cycle (n = 15)): 1.68-7.03 Gy/GBq | Absorbed Dose, Liver, Mean ± SD ([2]; First cycle (n = 15)): 0.12 ± 0.07 Gy/GBq | Absorbed Dose, Liver, Range ([2]; First cycle (n = 15)): 0.05-0.26 Gy/GBq | Absorbed Dose, Parotid glands, Mean ± SD ([2]; First cycle (n = 15)): 0.56 Gy/GBq | Absorbed Dose, Parotid glands, Range ([2]; First cycle (n = 15)): 0.25-0.84 Gy/GBq | Absorbed Dose, Submandibular glands, Mean ± SD ([2]; First cycle (n = 15)): 0.54 ± 0.29 Gy/GBq | Absorbed Dose, Submandibular glands, Range ([2]; First cycle (n = 15)): 0.25-1.35 Gy/GBq | Effective Dose, Whole body, Mean ± SD ([2]; First cycle (n = 15)): 0.05 Sv/GBq | Effective Dose, Whole body, Range ([2]; First cycle (n = 15)): 0.02-0.11 Sv/GBq | Absorbed Dose for Tumor Lesions, Lung metastases, Mean ± SD ([2]; First cycle, n 1): 2.7 Gy/GBq | Absorbed Dose for Tumor Lesions, Liver metastases, Mean ± SD ([2]; First cycle): 1.7 Gy/GBq | Absorbed Dose for Tumor Lesions, Liver metastases, Range ([2]; First cycle): 0.85-2.59 Gy/GBq | Absorbed Dose for Tumor Lesions, Lymph node metastases, Mean ± SD ([2]; First cycle, n 5): 2.6 ± 0.89 Gy/GBq | Absorbed Dose for Tumor Lesions, Lymph node metastases, Range ([2]; First cycle, n 5): 1.63-3.76 Gy/GBq | Absorbed Dose for Tumor Lesions, Bone metastases, Mean ± SD ([2]; First cycle, n 33): 3.8 ± 3.1 Gy/GBq | Absorbed Dose for Tumor Lesions, Bone metastases, Range ([2]; First cycle, n 33): 0.22-12.03 Gy/GBq | Absorbed Dose for Tumor Lesions, All metastases, Mean ± SD ([2]; First cycle, n 41): 3.5 ± 2.9 Gy/GBq | Absorbed Dose for Tumor Lesions, All metastases, Range ([2]; First cycle, n 41): 0.22-12.03 Gy/GBq | Absorbed Dose for Tumor Lesions, Liver metastases, Mean ± SD ([2]; Fourth cycle): 1.13 Gy/GBq | Absorbed Dose for Tumor Lesions, Liver metastases, Range ([2]; Fourth cycle): 0.74-1.51 Gy/GBq | Absorbed Dose for Tumor Lesions, Bone metastases, Mean ± SD ([2]; Fourth cycle, n 10): 2.7 ± 2.3 Gy/GBq | Absorbed Dose for Tumor Lesions, Bone metastases, Range ([2]; Fourth cycle, n 10): 1.04-7.60 Gy/GBq | Absorbed Dose for Tumor Lesions, All metastases, Mean ± SD ([2]; Fourth cycle, n 12): 2.4 ± 2.2 Gy/GBq | Absorbed Dose for Tumor Lesions, All metastases, Range ([2]; Fourth cycle, n 12): 0.74-7.60 Gy/GBq | Absorbed Dose, Kidneys, Mean ± SD ([2]; Fourth cycle): 0.69 ± 0.18 Gy/GBq | Absorbed Dose, Kidneys, Range ([2]; Fourth cycle): 0.45-0.95 Gy/GBq | Absorbed Dose, Lacrimal glands, Mean ± SD ([2]; Fourth cycle): 3.4 ± 1.7 Gy/GBq | Absorbed Dose, Lacrimal glands, Range ([2]; Fourth cycle): 1.75-5.35 Gy/GBq | Absorbed Dose, Liver, Mean ± SD ([2]; Fourth cycle): 0.11 ± 0.04 Gy/GBq | Absorbed Dose, Liver, Range ([2]; Fourth cycle): 0.07-0.17 Gy/GBq | Absorbed Dose, Parotid glands, Mean ± SD ([2]; Fourth cycle): 0.50 Gy/GBq | Absorbed Dose, Parotid glands, Range ([2]; Fourth cycle): 0.32-0.58 Gy/GBq | Absorbed Dose, Submandibular glands, Mean ± SD ([2]; Fourth cycle): 0.66 ± 0.53 Gy/GBq | Absorbed Dose, Submandibular glands, Range ([2]; Fourth cycle): 0.24-1.58 Gy/GBq | Effective Dose, Whole body, Mean ± SD ([2]; Fourth cycle): 0.05 Sv/GBq | Effective Dose, Whole body, Range ([2]; Fourth cycle): 0.03-0.11 Sv/GBq | Absorbed Dose, Kidneys, Mean ± SD ([2]; Overall (n = 34)): 0.72 ± 0.21 Gy/GBq | Absorbed Dose, Kidneys, Range ([2]; Overall (n = 34)): 0.33-1.22 Gy/GBq | Absorbed Dose, Lacrimal glands, Mean ± SD ([2]; Overall (n = 34)): 3.8 ± 1.4 Gy/GBq | Absorbed Dose, Lacrimal glands, Range ([2]; Overall (n = 34)): 1.68-7.03 Gy/GBq | Absorbed Dose, Liver, Mean ± SD ([2]; Overall (n = 34)): 0.12 ± 0.06 Gy/GBq | Absorbed Dose, Liver, Range ([2]; Overall (n = 34)): 0.05-0.26 Gy/GBq | Absorbed Dose, Parotid glands, Mean ± SD ([2]; Overall (n = 34)): 0.55 Gy/GBq | Absorbed Dose, Parotid glands, Range ([2]; Overall (n = 34)): 0.25-0.84 Gy/GBq | Absorbed Dose, Submandibular glands, Mean ± SD ([2]; Overall (n = 34)): 0.64 ± 0.40 Gy/GBq | Absorbed Dose, Submandibular glands, Range ([2]; Overall (n = 34)): 0.24-1.70 Gy/GBq | Effective Dose, Whole body, Mean ± SD ([2]; Overall (n = 34)): 0.06 Sv/GBq
